Test results as given in US20050171182A1, “Methods and compositions for use in the treatment of mutant receptor tyrosine kinase driven cellular proliferative diseases” (priority 2003, published 2005).
Like-named read-outs stand apart in the source and are kept apart here. One block for each compound: values may come before it.

What was measured:
[1] = system: EOL-1 cells; test: cells; settings: for effect on viability of EOL-1 cells, presence of cytokines: 1 μM (U0126 10 μM), FIGS. 2, 4, 6, GM-CSF and IL-3 10 ng/mL each; for IC50: read-out: Viability (IC50) EOL-1
Procedure: (§1) Given that mutant Flt3 activates cyclin D/CDK4 signaling, the effect of the CDK4 inhibitor arcyriaflavin on the viability of MV4-11 cells was tested. As a control in this experiment, an inhibitor for cyclin A/CDK2 and cyclin E/CDK2 (purvalanol) as well as an inhibitor for cyclin B/CDK1 (alsterpaullone) was included. […] The inhibitors were also tested against EOL-1 cells, which express the mutant fusion kinase FiplL1-PDGFROα and against K562 and BV173 cells (CML cell lines) and THP-1 and U937 cells (AML cell lines). The dilution range of the inhibitors was from 20 μM to 10 nM.
(§2) Viability of the cell lines was determined by an MTT assay, which is based on the reduction of the tetrazolium salt 3, [4,5-dimethylthiazol-2-yl]-2,5-diphenyltetrazolium bromide (MTT). Mitochondrial enzymes associated with metabolic activity reduce MTT to a formazan dye, which can be measured spectrometrically. Cells undergoing apoptosis show reduced metabolic activity resulting in reduced formation of the formazan dye.
(§3) The bone marrow environment is known to contain a multitude of cytokines. […] The cell lines were incubated with the appropriate inhibitor in the presence and absence of the cytokines GM-CSF and IL-3 (10 ng/mL each).
(§4) To test the role of MEK in the survival of MV4-11 and EOL-1 cells, a viability assay (48 hour incubation) was performed using U0126 (10 μM), an MEK specific inhibitor (see FIG. 5).

[2] = system: K562 cells; test: MTT viability assay, K562 cells; type: cell-based
Procedure: as §1, §2

[3] = system: BV173 cells; test: MTT viability assay, BV173 cells; type: cell-based
Procedure: as §1, §2

[4] = system: MV4-11 cells; test: cells; settings: for IC50: read-out: Viability (IC50) MV4-11
Procedure: as §1, §2, §3, §4

[5] = system: THP-1 cells; test: cells; settings: for IC50: read-out: Viability (IC50) THP-1; for effect on viability of THP-1 cells: 48 hours, arcyriaflavin 1 μM, U0126 10 μM, FIGS. 4-6, absence and presence of cytokines
Procedure: as §1, §2, §3, §4

[6] = system: U937 cells; test: MTT viability assay, U937 cells; type: cell-based
Procedure: as §1, §2

[7] = exposed to inhibitor for 72 hours
[8] = exposed to inhibitor for 72 hours, MTT
[9] = 48 hours, arcyriaflavin 1 μM, U0126 10 μM, FIGS. 5, 6, absence and presence of cytokines

Compound: CS(=O)(=O)O.Cc1ccc(NC(=O)c2ccc(CN3CCN(C)CC3)cc2)cc1Nc1nccc(-c2cccnc2)n1 [imatinib]
- effect on viability of EOL-1 cells, presence of cytokines ([1]; 48 hours): much less affected
- effect on viability of EOL-1 cells, absence of cytokines ([1]; 48 hours, 1 μM, FIGS. 2, 4, cytokines absent): strongly reduce

- IC50 [2, 7]: > 10000 nM
- IC50 [4, 8]: 3000 nM
- IC50 [5, 8]: > 10000 nM
- IC50 [6, 7]: > 10000 nM
Compound: purvalanol
- IC50 [3, 7]: > 10000 nM
- IC50 [1, 8]: > 10000 nM

Compound: O=C1NC(=O)c2c1c1c3ccccc3[nH]c1c1[nH]c3ccccc3c21 [arcyriaflavin, arcyriaflavin A]
- IC50 [2, 7]: > 10000 nM
- IC50 [3, 7]: > 10000 nM
- Viability (%) EOL-1 cell line, GM-CSF/IL-3 (10 ng/mL each) [1]: 60%
- effect on viability of EOL-1 cells, presence of cytokines ([1]; 48 hours): much reduced
- IC50 [1, 8]: 200 nM
- Viability (%) MV4-11 cell line, GM-CSF/IL-3 (10 ng/mL each) [4]: 52%
- effect on viability of MV4-11 cells, presence of cytokines ([4]; 48 hours, 1 μM (U0126 10 μM), FIGS. 3, 4, 6, GM-CSF and IL-3 10 ng/mL each): much reduced
- IC50 [4, 8]: 500 nM
- Viability (%) THP-1 cell line, GM-CSF/IL-3 (10 ng/mL each) [5]: 96%
- effect on viability of THP-1 cells [5]: not affected
- IC50 [5, 8]: > 10000 nM
- IC50 [6, 7]: > 10000 nM

Compound: N#CC(=C(/N)Sc1ccccc1N)/C(C#N)=C(\N)Sc1ccccc1N [U0126, 1,4-diamino-2,3-dicyano-1,4-bis[2-aminophenylthio]butadiene]
- effect on survival/viability of EOL-1 cells, overall [1, 9]: slightly alters
- viability at 10 µM ([1]; Homo sapiens, EOL1, 48 h, read-out: Viability (%) EOL-1 cell line, Cytokines Absent): 80%
- Viability (%) EOL-1 cell line, GM-CSF/IL-3 (10 ng/mL each) ([1]; human, 48 h, 10 μM): 103%
- effect on survival/viability of MV4-11 cells, overall [4, 9]: slightly alters
- viability at 10 µM ([4]; Homo sapiens, MV4-11, 48 h, read-out: Viability (%) MV4-11 cell line, Cytokines Absent): 103%
- Viability (%) MV4-11 cell line, GM-CSF/IL-3 (10 ng/mL each) ([4]; human, 48 h, 10 μM): 90%
- effect on viability of THP-1 cells [5]: slightly alters
- viability at 10 µM ([5]; Homo sapiens, THP-1, 48 h, read-out: Viability (%) THP-1 cell line, Cytokines Absent): 79%
- Viability (%) THP-1 cell line, GM-CSF/IL-3 (10 ng/mL each) ([5]; human, 48 h, 10 μM): 97%

- IC50 ([2]; Homo sapiens, K562, exposed to inhibitor for 72 hours): > 10000 nM
- IC50 ([4]; Homo sapiens, MV4-11, 72 h): 1000 nM
- IC50 ([5]; Homo sapiens, THP-1, 72 h): 1000 nM
- IC50 ([6]; Homo sapiens, U-937, exposed to inhibitor for 72 hours): 600 nM
Compound: O=C1Cc2c([nH]c3ccc([N+](=O)[O-])cc23)-c2ccccc2N1 [alsterpaullone]
- IC50 ([3]; Homo sapiens, BV-173, exposed to inhibitor for 72 hours): 1000 nM
- IC50 ([1]; Homo sapiens, EOL1, 72 h): 1000 nM
